# From patent publication US7488844B2, “Therapeutic agents” (AstraZeneca AB, priority 2001, dated 2009)
# Biological target: T1, PPARγ (Homo sapiens, UniProt P37231)
# T1 construct: expressed in transfected cells; host or cells: U2-OS (human osteogenic sarcoma), transient electroporation
# T1 sequence (P37231 238-503 limits assumed): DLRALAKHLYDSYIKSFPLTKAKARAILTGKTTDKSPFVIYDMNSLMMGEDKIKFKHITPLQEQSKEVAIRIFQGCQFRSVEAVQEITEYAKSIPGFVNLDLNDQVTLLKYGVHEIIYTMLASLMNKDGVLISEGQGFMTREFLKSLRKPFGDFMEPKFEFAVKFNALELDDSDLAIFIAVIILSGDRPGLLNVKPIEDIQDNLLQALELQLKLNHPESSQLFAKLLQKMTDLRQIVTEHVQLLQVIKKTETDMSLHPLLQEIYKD
# Assay: GAL4-PPARγ ligand binding domain luciferase reporter transactivation in transiently transfected U2-OS cells
# Assay type: cell-based
# Details: selectivity PPARα over PPARγ
# Description: The compounds of Examples 5-9 were tested in the assays described in WO03/051821.
# Compounds were dissolved in DMSO to obtain 16 mM stock solutions. Before assays, stock solutions were further diluted in DMSO and culture media.
# U2-OS, (Osteogenic sarcoma, Human) was purchased from ATCC, USA. Cells were expanded and refrozen in batches from passage number six. Cells were cultured in Dulbecco's modified Eagle medium (DMEM) with 25 mM glucose, 2 mM glutamin or 4 mM L-alanyl-L-glutamine, 10% fetal calf serum, at 5% CO2. Phosphate buffered saline (PBS) without addition of calcium or magnesium was used. All cell culture reagents were from Gibco (USA) and 96-well cell culture plates were purchased from Wallah.
# Standard recombinant DNA techniques were carried out as described by Ausubel (7). The Luciferase reporter vector, pGL5UAS (clone consists of five copies of the GAL4 DNA binding sequence, 5′-[…]-3′, cloned into the SacI/XhoI sites of pGL3-Promoter (Promega). The SacI/XhoI fragment carrying the UAS sites was constructed using annealed overlapping oligonucleotides.
# Expression vectors used are based upon pSG5 (Stratagene). All vectors contain an EcoRI/NheI fragment encoding the DNA binding domain of GAL4 (encoding amino acid positions 1-145 of database accession number P04386) followed by an in-frame fusion to a fragment encoding the nuclear localisation sequence from T antigen of Polyoma Virus.
# The nuclear localisation sequence was constructed using annealed overlapping oligonucleotides creating NheI/KpnI sticky ends(5′-[…]-3′). The ligand binding domains from human and mouse PPARa and human and mouse PPARy were PCR amplified as KpnI/BamHI fragments and cloned in frame to the GAL4 DNA binding domain and the nuclear localisation sequence. The sequence of all plasmid constructs used were confirmed by sequencing. The following expression vectors were used for transient transfections:
# Frozen stocks of cells from passage number six were thawed and expanded to passage number eight before transfections. […]
row,SMILES,ratio EC50 (PPARγ): EC50 (PPARα)
1,"CCO[C@@H](Cc1ccc(OCC(=O)N(Cc2ccc(Cl)cc2)Cc2ccc(Cl)cc2)cc1)C(=O)O [Example 22, (2S)-3-(4-{2-[bis(4-Chlorobenzyl)amino]-2-oxoethoxy}phenyl)-2-ethoxypropanoic acid]",>1000
2,"CCO[C@@H](Cc1ccc(OCC(=O)N(Cc2ccc(Cl)cc2)Cc2ccc(C(C)(C)C)cc2)cc1)C(=O)O [Example 23, (2S)-3-(4-{2-[(4-tert-Butylbenzyl)(4-chlorobenzyl)amino]-2-oxoethoxy}phenyl)-2-ethoxypropanoic acid]",>400
3,"CCO[C@@H](Cc1ccc(OCC(=O)N(Cc2ccc(C(F)(F)F)cc2)Cc2ccc(C(F)(F)F)cc2)cc1)C(=O)O [Example 25, (2S)-3-[4-(2-{bis[4-(Trifluoromethyl)benzyl]amino}-2-oxoethoxy)phenyl]-2-ethoxypropanoic acid]",>900
